Biological target: T1, PDE5 enzyme (Homo sapiens, UniProt O76074)
T1 construct: The PDE5 enzyme isolated from human platelets; from tissue; host or cells: human platelets
Test: Method 1: Human Platelet PDE5 Enzyme Inhibition Scintillation Proximity Assay
Format: biochemical
Settings: METHOD 1: PDE5 IC50, Table B, WO2004096810 examples
From the text: Method 1: Human Platelet PDE5 Enzyme Inhibition Scintillation Proximity Assay
An in vitro assay can be used to evaluate the inhibition of PDE5 enzyme activity by a test compound.
The PDE5 enzyme for use in the assay can be obtained from human platelets by appropriate modification of the method of Thompson, W J et al.; Biochemistry 18(23), 5228-5237, 1979, as described by Ballard S A et al.; J. Urology 159(6), 2164-2171, 1998. The PDE5 enzyme isolated from human platelets can be used to catalyze the hydrolysis of [^3H]cGMP (Amersham Biosciences) to 5′ nucleotide [^3H]GMP. The [^3H]GMP binds to yttrium silicate SPA beads (Amersham Biosciences) and is detected by scintillation counting. More specifically, the effect of the test compound at different concentrations can be evaluated in the assay by contacting the compound with a fixed amount of PDE5 enzyme in the presence of substrate (cGMP or cAMP in a 3:1 ratio unlabelled to [^3H]-labeled). Scintillation counting can be used as described above to determine relative PDE5 enzyme activity. The inhibition of PDE5 enzyme activity is then calculated relative to total PDE5 enzyme activity of uninhibited controls.
PDE5 IC50 Assay: 96-well microtiter plate format
• Buffer A: 20 mM Tris-HCl, 5 mM MgCl2, pH 7.4 • Buffer B: 2 mg/ml BSA in Buffer A (enzyme buffer) • cGMP substrate: Final concentration of 500 nM in assay The amount of ^3H-labeled substrate added depends upon the specific activity of [^3H]cGMP, and the cGMP substrate is diluted with a 10 mM stock of cold cGMP in Buffer A for a final substrate concentration of 500 nM in the assay. • PDE enzyme: Prepared in Buffer B. The dilution factor is determined by enzyme activity. • SPA beads: 20 mg/ml suspension prepared in dH2O.
Stocks of standard and test compounds are prepared at 5 mM in 100% DMSO. The compound is serially diluted in a dilution plate using a 10-point ½ log dilution format. 2 μl of the compound dilution is added in duplicate to the wells of the assay plate. 2 μl of 100% DMSO are added to designated control wells. 25 μl of Buffer A are added to all wells. 25 μl of Buffer B are added to the negative control wells. 25 μl of enzyme are added to the remaining wells. 50 μl of substrate are added to each well. Plates are sealed and incubated for 60 minutes on a plate shaker at 30 C. 50 plof SPA beads are added to stop the reaction. The plates are again sealed and shaken for 15 minutes to allow the beads to bind the GMP product. The beads are allowed to settle for 30 minutes and then read on a NXT TopCount scintillation counter. Data are analyzed with a curve fitting application for plate-based screening. Percent inhibition in this assay is calculated as follows: Inhibition (%)=[(mean maximum−compound value/(mean maximum−mean minimum)]×100.
The IC50 value is determined from sigmoid dose-response curves of enzyme activity versus compound concentration.

IC50 [nM] | Structure (SMILES)
> 10000 | CCCc1nn(C)c2c(Nc3ccc(C)cn3)nc(NC3CNC3)nc12 [WO2004096810 Example 37]
0.71 | CCOCCn1nc(CC)c2nc(N(C)[C@@H]3CCN(C)C3)nc(Nc3cc(C)ccn3)c21 [WO2004096810 Example 158]
78.2 | CCCc1nn(C)c2c(NC3CCCCC3)nc(N3CCNCC3)nc12 [WO2004096810 Example 124]
432 | Cc1ccnc(Nc2nc(N3CCNCC3)nc3c(C)n(CCC(C)C)nc23)c1 [WO2004096810 Example 174]
139 | CCCc1nn(C)c2c(NC3CCCC3)nc(N3CCNCC3)nc12 [WO2004096810 Example 129]
513 | CCc1nn(CCOC)c2c(Nc3ccc(F)cn3)nc(NCCOC)nc12 [WO2004096810 Example 110]
67.2 | COCCCn1nc(C)c2nc(N3CC[C@@H](O)C3)nc(Nc3cc(C)ccn3)c21 [WO2004096810 Example 100]
4.45 | COCCn1nc(C)c2nc(N3C[C@H](C)NC[C@H]3C)nc(Nc3cc(C)ccn3)c21 [WO2004096810 Example 133]
2.46 | CCOCCn1nc(C)c2nc(N3C[C@@H](C)NC[C@@H]3C)nc(Nc3ccncn3)c21 [WO2004096810 Example 147]
26.5 | COCCCn1nc(C)c2nc(N(C)CCO)nc(Nc3cc(C)ccn3)c21 [WO2004096810 Example 92]
1550 | CCCc1nn(C)c2c(Nc3ncc[nH]3)nc(NC)nc12 [WO2004096810 Example 90]
11.5 | CCOCCn1nc(C)c2nc(N(C)CC)nc(Nc3ccnc(C)n3)c21 [WO2004096810 Example 218]
> 100 | CCOCCn1nc(C)c2nc(N3C[C@@H]4C[C@H]3CN4)nc(Nc3cccc(C)n3)c21 [WO2004096810 Example 235]
177 | CCCc1nn(C)c2c(Nc3cc(C)ccn3)nc(NCCOC)nc12 [WO2004096810 Example 72]
22.7 | COCCn1nc(C)c2nc(N3C[C@@H](C)NC[C@@H]3C)nc(Nc3cc(C)ccn3)c21 [WO2004096810 Example 142]
43.8 | CCOCCn1nc(CC)c2nc(N3CC(N)C3)nc(Nc3ccncn3)c21 [WO2004096810 Example 3]
0.55 | CCOCCn1nc(CC)c2nc(N3C[C@H](C)NC[C@H]3C)nc(Nc3cc(C)ccn3)c21 [WO2004096810 Example 139]
152 | CCCc1nn(C)c2c(Nc3cc(C)ccn3)nc(NCc3ccc(OC)cc3)nc12 [WO2004096810 Example 71]
5.46 | CCOCCn1nc(C)c2nc(N(C)CCOC)nc(Nc3ccc(=O)n(C)c3)c21 [WO2004096810 Example 202]
1.33 | CCOCCn1nc(COC)c2nc(N(C)CC)nc(Nc3ccncn3)c21 [WO2004096810 Example 225]

IC50 [nM] | Structure (SMILES)
0.5 | CCOCCn1nc(C)c2nc(N(C)[C@H]3CCN(C)C3)nc(Nc3cc(C)ccn3)c21 [WO2004096810 Example 161]
0.33 | CCOCCn1nc(C)c2nc(N3C[C@H](C)NC[C@H]3C)nc(Nc3ccncn3)c21 [WO2004096810 Example 138]
10.5 | COCCn1nc(C)c2nc(N3CCNCC3)nc(Nc3cc(C)ccn3)c21 [WO2004096810 Example 165]
0.62 | CCOCCn1nc(COC)c2nc(N3CC4CCC(C3)N4)nc(Nc3cc(C)ccn3)c21 [WO2004096810 Example 242]
239 | CNc1nc(Nc2cc(C)ccn2)c2c(n1)c(C)nn2CCCOC [WO2004096810 Example 99]
0.92 | COCCn1nc(C)c2nc(N3C[C@H](C)NC[C@H]3C)nc(Nc3ccncn3)c21 [WO2004096810 Example 135]
5.3 | CCOCCn1nc(COC)c2nc(N3CC(N(C)C)C3)nc(Nc3cc(C)ccn3)c21 [WO2004096810 Example 215]
737 | CCCc1nn(C)c2c(Nc3ccc(C)cn3)nc(N3CCC(O)CC3)nc12 [WO2004096810 Example 35]
41 | CCOCCn1nc(C)c2nc(N(C)CCOC)nc(Nc3ccnc(C)n3)c21 [WO2004096810 Example 219]
2.04 | CCOCCn1ncc2nc(N3CCN[C@H](C)C3)nc(Nc3ccncn3)c21 [WO2004096810 Example 21]
1.74 | CCOCCn1nc(C)c2nc(N3CCN[C@@H](C)C3)nc(Nc3ccncn3)c21 [WO2004096810 Example 12]
1.61 | CCOCCn1nc(CO)c2nc(N3C[C@@H]4C[C@H]3CN4)nc(Nc3cc(C)ccn3)c21 [WO2004096810 Example 229]
0.98 | CCOCCn1nc(CC)c2nc(N3CCN[C@@H](C)C3)nc(Nc3ccncn3)c21 [WO2004096810 Example 16]
11.5 | Cc1ccnc(Nc2nc(N3CCNCC3)nc3c(C)nn(CC4CCCO4)c23)c1 (centres unmarked) [WO2004096810 Example 166]
0.29 | CCOCCn1nc(C)c2nc(N3CCN[C@H](C)C3)nc(Nc3ccncn3)c21 [WO2004096810 Example 11]
248 | CCCc1nn(C)c2c(Nc3ccc(CC)cn3)nc(N3CCNCC3)nc12 [WO2004096810 Example 123]
0.24 | CCOCCn1nc(C)c2nc(N(C)[C@H]3CCN(C)C3)nc(Nc3ccncn3)c21 [WO2004096810 Example 191]
27.3 | CCc1nn(CCOC)c2c(Nc3ccccn3)nc(N(C)CCO)nc12 [WO2004096810 Example 109]
0.56 | CCOCCn1nc(C)c2nc(N3CCN[C@H](C)C3)nc(Nc3ccc(OC)nc3)c21 [WO2004096810 Example 194]
2230 | CCCc1nn(C)c2c(N[C@H]3CC[C@H](O)CC3)nc(N3CCNCC3)nc12 [WO2004096810 Example 126]

IC50 [nM] | Structure (SMILES)
0.56 | CCOCCn1nc(C)c2nc(N3CCN[C@H](C)C3)nc(Nc3cccc(OC)n3)c21 [WO2004096810 Example 196]
134 | CCCc1nn(C)c2c(Nc3cc(OC)ncn3)nc(N3CCNCC3)nc12 [WO2004096810 Example 83]
0.67 | CCOCCn1nc(C)c2nc(N3CC4CCC3CN4)nc(Nc3cc(C)ccn3)c21 (centres unmarked) [WO2004096810 Example 237]
16.3 | CCOCCn1nc(CC)c2nc(N(C)[C@@H]3CCN(C)C3)nc(Nc3ccc(C)cn3)c21 [WO2004096810 Example 159]
22.4 | CCOCCn1nc(CC)c2nc(N3CCN[C@H](C(C)C)C3)nc(Nc3ccncn3)c21 [WO2004096810 Example 17]
2.54 | CCOCCn1nc(C)c2nc(N3CC4C[C@@H]3CN4)nc(Nc3cc(C)ccn3)c21 [WO2004096810 Example 244]
76 | COCCn1nc(C)c2nc(N3CC[C@H](OC)C3)nc(Nc3cc(C)ccn3)c21 [WO2004096810 Example 95]
396 | Cc1ccnc(Nc2nc(N3CCNCC3)nc3c(C)n(CC4CC4)nc23)c1 [WO2004096810 Example 173]
0.81 | Cc1ccnc(Nc2nc(N3CCNCC3)nc3c(C)nn(CC4CCCCO4)c23)c1 (centres unmarked) [WO2004096810 Example 168]
4.03 | CCOCCn1nc(CO)c2nc(N(C)C)nc(Nc3cc(C)ccn3)c21 [WO2004096810 Example 182]
10.3 | Cc1ccnc(Nc2nc(N3C[C@@H]4C[C@H]3CN4)nc3c(C)nn(CCOCC(F)(F)F)c23)c1 [WO2004096810 Example 231]
3.6 | CCOCCn1nc(C)c2nc(N3CCN[C@H](C)C3)nc(Nc3ccnc(C)n3)c21 [WO2004096810 Example 220]
6.95 | COCCn1nc(C(C)C)c2nc(N3CCN[C@H](C)C3)nc(Nc3ccc(C)cn3)c21 [WO2004096810 Example 8]
456 | CCCc1nn(C)c2c(Nc3cc(C)ccn3)nc(N3CCN[C@@H](C)C3)nc12 [WO2004096810 Example 39]
778 | CCc1nn(CCOC)c2c(Nc3ccc(C)cn3)nc(N3CCOCC3)nc12 [WO2004096810 Example 108]
1.76 | CCOCCn1nc(C)c2nc(N3CCN[C@H](C)C3)nc(Nc3cccc(C)n3)c21 [WO2004096810 Example 197]
48.7 | CCOCCn1nc(C)c2nc(N3C[C@@H]4C[C@H]3CN4)nc(Nc3ccncn3)c21 [WO2004096810 Example 241]
1250 | CCCc1nn(C)c2c(Nc3ccc(C)cn3)nc(N3CCN(C)CC3)nc12 [WO2004096810 Example 113]

Structure (SMILES) | IC50 [nM]
CCCc1nn(C)c2c(N(C)C3CCN(C)CC3)nc(NC)nc12 [WO2004096810 Example 130] | > 10000

Source: patent publication US8518956B2, “1-(1-(2-ethoxyethyl)-3-ethyl-7-(4-methylpyridin-2-ylamino)-1H-pyrazolo[4,3-d]pyrimidin-5-yl) piperidine-4-carboxylic acid and salts thereof” (priority 2005, dated 2013)
